“Also recorded” adds a separate entry of the source. [5mC] = 5-methylcytosine

As a reminder, the Kd is the concentration at which binding is half-saturated.

Data set [1] deals with DNA cytosine-5 methyltransferase (DCMTase, Dnmt1) (Mus musculus) (UniProt P13864). Description: EMSA. Conditions: pooled generation-5 sequences vs starting pool. (Mobility shift assays separate free from complexed probe on a gel.)
Data set [2] concerns the target T1, DCMTase (Mus musculus, UniProt P13864).
T1 construct: DCMTase was purified from mouse erythroleukemia cells as previously described; endogenous in cells; host or cells: mouse erythroleukemia (MEL) cells; enzyme purified from them
Description: Dead-end inhibition of poly(dI.dC:dI.dC) methylation by single-stranded DNA. Format: biochemical. Here is the method: (§1) After preincubation at room temperature for up to 10 minutes, reactions were initiated by the addition of poly(dI.dC:dI.dC) and, if indicated, inhibitor DNA or reaction products. […] Single-stranded DNA was heated to 90° C. and quick cooled on ice, prior to initiation of the reaction. Freeze-thawed DNA produced equivalent results. Incubations were at 37° C. for 60 minutes. The poly(dI.dC:dI.dC) concentrations were 2.0, 4.0, 8.0, 16, 35, 80, 160, 250, 400, 700 and 1000 pM. In some experiments, GC-box a/b was the substrate, using 100 nM DCMTase and DNA concentrations of 0.20, 0.40, 1.0, 2.0, 4.0, 8.0, 15, 23 and 35 μM. The reaction was stopped after 60 minutes by transferring 20 μL of the reaction onto a DE 81 filter paper that was processed as described (Flynn et al., 1996). The radioactivity above the background, determined from assays without added poly(dI.dC:dI.dC), was converted to initial velocities and expressed as picomoles of methyl groups transferred to poly(dI.dC:dI.dC) per hour and plotted in double reciprocal form.
The poly(dI.dC:dI.dC) concentrations were 10, 13, 20, 40 and 100 pM. The GC-box b concentrations were: diamonds, 0; circles, 0.75 μM; triangles, 1.5 μM; squares, 5.0 μM. Incubations were at 37° C. for 60 minutes.
The poly(dI.dC:dI.dC) concentrations were 1.5, 3.0, 7.5, 15 and 20 pM. The GC-box b^MET concentrations were: squares, 0; circles, 10 nM; diamonds. 20 nM; triangles, 40 nM. Incubations were at 37° C. for 60 minutes.
The GC-box b^MET concentrations were: squares, 0; circles, 20 nM; diamonds, 40 nM; triangles, 80 nM. Incubations were at 37° C. for 60 minutes.
(§2) The Michaelis-Menton equation was used for studies into DNA length contributions to catalysis using KaliedaGraph 2.1.2 (Synergy Software). For mechanistic determinations, the nomenclature used is that of Cleland, W. W., 1963a. Biochimi. Biophysi. Acta 67:104-137. All steady-state data were analyzed using regression analyses of the appropriate initial velocity equation, listed below, using the Cleland programs (Cleland, W. W., 1979, Statistical analysis of enzyme kinetic data. Methods in Enzymol. 63:103-138).
(§3) The algorithms perform a non-linear least squares fit to the entire data set. Mechanistic determinations were made by comparison of the sigma values associated with the fit to each equation. The standard errors associated with fitted parameters and graphical analysis of the experimental data scattered around the calculated best fit lines were also considered in making an assignment.

Data set [3] deals with T1, DCMTase. To be noted: previous kinetic study (Flynn et al., 1996); cited from earlier work.
Data set [4] relates to mouse erythroleukemia (MEL) cells. Description: Anti-proliferative effects on MEL cells. Format: cell-based. To be noted: for growth rate of MEL cells: incubation with inhibitor, concentration dependent.
Data set [5] deals with DNA cytosine-5 methyltransferase (DCMTase, Dnmt1) (Mus musculus) (UniProt P13864). Description: inhibition.
Data set [6] deals with T1, DCMTase. As to the kind of experiment: Product inhibition studies, steady-state. The arrangement: key to Type of Inhibition: C: competitive; NC: noncompetitive; UC: uncompetitive inhibition. Format: biochemical. Here is the method:
as §1
The AdoHcy concentrations were: squares, 0; diamonds, 0.75 ,μM; circles, 1.5 μM; triangles, 3.0 μM; notched squares, 6.0 μM. Incubations were at 37° C. for 60 minutes.
For the double reciprocal plot of AdoHcy product inhibition with varying poly(dI.dC:dI.dC) concentrations (FIGS. 17A-C), reactions contained 20 nM DCMTase in 100 mM Tris pH 8.0, 10 mM EDTA, 10 mM DTT, 200 μg/mL BSA. Incubations were at 37° C. for 60 minutes. The poly(dI.dC:dI.dC) concentrations were 2.5, 5.0, 10, and 20 pM. The AdoHcy concentrations were: squares, 0; diamonds, 15 μM; circles, 30 μM.
The poly(dId^mC:dId^mC) concentrations were: squares, 0; diamonds, 5.0 pM; circles, 10 pM; triangles, 20 pM. Incubations were at 37° C. for 60 minutes. Experimental data are shown scattered around lines derived from a fit to equation 5 for noncompetitive inhibition.
200 μg/mL BSA. Incubations were at 37° C. for 60 minutes. The poly(dI.dC:dI.dC) concentrations were 20, 40, 80, 120 and 160 pM. The poly(dId^mC:dId^mC) concentrations were: squares, 0; triangles, 34 pM; circles, 45 pM; diamonds, 68, notched squares, 90 pM. Experimental data are shown scattered around lines. In FIG. 19A, lines are derived from a fit to equation 4 for competitive inhibition. In FIG. 19B, lines are derived from a fit to equation 5 for noncompetitive inhibition. Both fittings are not acceptable.
as §2, §3

Data set [7] addresses T2, DNA cytosine-5 methyltransferase (DCMTase, Dnmt1) (Mus musculus, UniProt P13864 P13864:1-1620). As to the kind of experiment: EMSA; unit printed as mM (text indicates micromolar). Conditions: tags: none, purified from mouse erythroleukemia (MEL) cells. Here is the method:
Gel mobility shift assays (GMSA) were performed with minor revisions to the original procedures (Fried, M., & Crothers, D. M., 1981, Equilibria and kinetics of the lac repressor-operator interactions by polyacrylamide gel electrophoresis, Nucleic Acids Res. 9:6505-6525; Garner, M. M. & Revzin, A., 1981, A gel electrophoresis method for quantifying the binding proteins to specific DNA regions: applications to components of the Escherichia coli lactose operon regulatory system, Nucleic Acids Res. 13:3047-3060). All reactions were done in 100 mM Hepes pH 7.4, 10 mM EDTA, 10 mM DTT, […], 5% glycerol using the indicated P-labeled DNA and DCMTase concentrations, incubated on ice for 5 minutes and loaded on a 1×TBE(89 mM Tris-HCl pH 8.3, 89 mM boric acid, 2 mM EDTA), 6% polyacrylamide gel. Electrophoresis was done at 250 V, 9 mA for 2 hours at 4° C. and the dried gel was exposed to film overnight. The reaction conditions for buffer, temperature, incubation time, cofactor addition and gel composition have all been optimized. Only slightly better complex resolution was obtained under the listed conditions compared to a 10 minute incubation at 37° C. prior to gel loading at room temperature and containing either cofactor S-adenosyl-L-methionine, product S-adenosyl-L-homocysteine, or the AdoMet analog sinefungin. Hepes reaction buffer at pH 7.4 produced sharper banding than Tris-HCl at pH 8.0. […] Subsequent assays used a limiting and constant enzyme concentration with varying DNA concentrations.
(§4) Steady-state kinetic analyses of the DCMTase with the same 30 base-pair DNA substrates used in these studies indicate that Kₘ^DNA is 1000- to 50,000-fold higher (Flynn, J., et al., 1996, Murine DNA cytosine-C5 methyltransferase: Pre-steady- and steady-state kinetic analyses with regulatory DNA sequences, Biochemistry 35:7308-7315) than the DNA concentrations used to generate FIG. 2 and used by Reale et al, 1995, supra. […] Therefore, the stability of protein:DNA was determined by keeping the enzyme at a constant concentration (100 nM) and varying the amount of added DNA (Dubey & Roberts, 1992, supra).

Data set [8] addresses T2, DNA cytosine-5 methyltransferase …. As to the kind of experiment: EMSA; unit printed as mM (text indicates micromolar); at limit of resolution. To be noted: tags: none; purified from mouse erythroleukemia (MEL) cells. Here is the method:
(§5) Gel mobility shift assays (GMSA) were performed with minor revisions to the original procedures (Fried, M., & Crothers, D. M., 1981, Equilibria and kinetics of the lac repressor-operator interactions by polyacrylamide gel electrophoresis, Nucleic Acids Res. 9:6505-6525; Garner, M. M. & Revzin, A., 1981, A gel electrophoresis method for quantifying the binding proteins to specific DNA regions: applications to components of the Escherichia coli lactose operon regulatory system, Nucleic Acids Res. 13:3047-3060). […]
as §4

Data set [9] has the same target. As to the kind of experiment: EMSA; unit printed as mM (text indicates micromolar); 100 nM enzyme, DNA varied; Hepes pH 7.4, 10 mM EDTA, on ice, no AdoMet. Conditions: tags: none; purified from mouse erythroleukemia (MEL) cells; label: 32P. Here is the method:
as §5, §4

T2 sequence (P13864 whole entry, one chain of several): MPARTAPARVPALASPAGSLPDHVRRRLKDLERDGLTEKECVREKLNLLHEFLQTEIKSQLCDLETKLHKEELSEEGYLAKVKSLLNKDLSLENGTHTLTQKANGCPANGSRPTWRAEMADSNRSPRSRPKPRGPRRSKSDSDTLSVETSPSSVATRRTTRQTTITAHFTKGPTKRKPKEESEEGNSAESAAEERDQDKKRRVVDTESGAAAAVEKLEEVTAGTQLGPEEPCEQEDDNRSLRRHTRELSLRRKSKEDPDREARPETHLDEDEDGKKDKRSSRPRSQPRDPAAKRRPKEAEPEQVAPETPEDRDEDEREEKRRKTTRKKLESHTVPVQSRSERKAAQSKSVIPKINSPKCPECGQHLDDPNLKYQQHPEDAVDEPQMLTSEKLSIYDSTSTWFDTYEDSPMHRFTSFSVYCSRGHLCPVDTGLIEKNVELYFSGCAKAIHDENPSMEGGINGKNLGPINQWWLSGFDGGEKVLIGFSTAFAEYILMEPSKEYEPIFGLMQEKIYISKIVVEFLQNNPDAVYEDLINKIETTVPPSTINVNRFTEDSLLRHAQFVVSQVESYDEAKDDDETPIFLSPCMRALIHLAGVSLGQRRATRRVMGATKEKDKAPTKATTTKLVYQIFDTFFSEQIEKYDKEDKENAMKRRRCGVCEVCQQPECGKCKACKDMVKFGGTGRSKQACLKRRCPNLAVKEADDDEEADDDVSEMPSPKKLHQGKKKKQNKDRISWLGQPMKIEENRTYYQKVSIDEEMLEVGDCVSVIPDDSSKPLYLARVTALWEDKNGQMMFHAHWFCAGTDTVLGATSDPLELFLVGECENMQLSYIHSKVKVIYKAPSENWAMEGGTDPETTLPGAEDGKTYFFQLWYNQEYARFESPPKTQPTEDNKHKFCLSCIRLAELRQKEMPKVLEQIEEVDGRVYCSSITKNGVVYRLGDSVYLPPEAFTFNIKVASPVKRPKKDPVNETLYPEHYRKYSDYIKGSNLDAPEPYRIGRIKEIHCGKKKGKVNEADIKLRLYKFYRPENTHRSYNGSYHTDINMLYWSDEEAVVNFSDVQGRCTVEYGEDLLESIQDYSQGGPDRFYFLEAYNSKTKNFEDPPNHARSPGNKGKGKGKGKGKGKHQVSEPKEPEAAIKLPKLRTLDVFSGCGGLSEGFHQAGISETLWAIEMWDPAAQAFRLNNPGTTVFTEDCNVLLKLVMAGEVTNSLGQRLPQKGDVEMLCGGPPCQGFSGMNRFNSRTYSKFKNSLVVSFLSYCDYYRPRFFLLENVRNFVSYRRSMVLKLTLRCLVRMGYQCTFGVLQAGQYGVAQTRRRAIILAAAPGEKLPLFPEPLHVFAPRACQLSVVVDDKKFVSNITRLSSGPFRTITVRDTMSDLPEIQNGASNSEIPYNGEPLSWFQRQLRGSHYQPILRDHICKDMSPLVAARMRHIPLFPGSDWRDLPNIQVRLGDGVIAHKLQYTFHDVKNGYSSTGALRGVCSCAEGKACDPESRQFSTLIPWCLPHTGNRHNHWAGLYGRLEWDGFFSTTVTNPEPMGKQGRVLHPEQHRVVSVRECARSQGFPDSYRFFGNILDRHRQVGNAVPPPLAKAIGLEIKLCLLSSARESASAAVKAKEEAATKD
Sequence of DNA cytosine-5 methyltransferase (DCMTase, Dnmt1) (Mus musculus) (P13864 whole entry): as the sequence (P13864 whole entry, one chain of several) above
T1 sequence (P13864 whole entry): as the sequence (P13864 whole entry, one chain of several) above

Consider “GGGAATTCATGGATCCTAAANNNNNNNNNNNNCGNNNNNNNNNNNNTTTCAAGCTTGTGATTCCC (double strand) [generation-5 selected pool]”, for which the binding signal (fold tighter than starting pool) in [1] was 2.

Consider “5′-CTGGATCCTTGCCCCGCCCCTTGAATTCCC-3′ (DNA, backbone not given here) [GC-box b]”, for which, in the data set with DCMTase [2], the “Mode of Inhibition” value is recorded as “Noncompetitive with poly(dIdC:dIdC)” and the “alpha factor, Kii/Kis” value is 1.9. Besides, in the data set with DCMTase [2] (poly(dI.dC:dI.dC) varied, noncompetitive fit, 15 μM AdoMet, read-out: Kii), the Ki was determined as 6800 nM. Further, the Ki with DCMTase [2] (poly(dI.dC:dI.dC) varied, noncompetitive fit, 15 μM AdoMet, read-out: Kis) was 3600 nM. Besides, in the data set with DCMTase [3], the “enzyme activity with single-stranded substrate” value was “no detectable enzyme activity”.

On to “5′-CTGGATCCTTGCCC^mCGCCCCTTGAATTCCC-3′ (DNA CTGGATCCTTGCCCCGCCCCTTGAATTCCC; DNA, [5mC] at 15, backbone not given here) [GC-box b^MET]”, for which, in the data set with DCMTase [2], the “Mode of Inhibition” value was “Uncompetitive with poly(dIdC:dIdC); also recorded: Competitive with Adomet”. Besides, the Ki was 25 nM in the data set with DCMTase [2] (AdoMet varied, constant 50 pM poly(dI.dC:dI.dC), competitive fit, read-out: Inhibition Constant, slope derived (Kis), equation 4); approximately 20 nM with DCMTase [2] (Kii and Kis, read-out: the two inhibition constants in agreement); 20 nM with DCMTase [2] (poly(dI.dC:dI.dC) varied, uncompetitive fit, 10 μM AdoMet, read-out: Inhibition Constant, intercept derived Kii, equation 6); 2.5 nM with DCMTase [2] (read-out: KI, dissociation constant from the DCMTase:poly(dI.dC:dI.dC) complex). The “lower affinity for free enzyme in the absence of poly(dI.dC:dI.dC)” value in the data set with DCMTase [2] (compared with Example 1 binding) amounted to 120 fold. Moreover, the “lower inhibition constant (increased inhibition) versus GC-box b” value in the data set with DCMTase [2] (single 5-mC substitution) came to 200 fold. In data set [4], the “growth rate of MEL cells” value is “slows down the growth rate”.

Take “poly(dI.dC:dI.dC), average 6250 or 5000 bp”: the Ki in data set [5] (substrate inhibition, 6250 bp, apparent Km 5.5 +/- 0.9 pM, true Km 36 +/- 5 pM) came to 1 nM.

Turning to poly(dI.dmC:dI.dmC), fully methylated, the Ki in data set [5] (5mC at all M.SssI sites, Kis, noncompetitive product inhibition vs AdoMet, Kii 30 +/- 12 pM) is 0.0053 nM.

“5′-GGGAATTCAAGGGGCGGGGCAAGGATCCAG-3′ (DNA, backbone not given here) [GC-box a]”: the “enzyme activity with single-stranded substrate” value with DCMTase [3] was “no detectable enzyme activity”.

Regarding “GC-box p^MET: SEQ ID NO:10 with a phosphorothioate backbone (DNA CTGGATCCTTGCCCCGCCCCTTGAATTCCC; listed as DNA, chemistry not fully specified)”, the “occurrence of large multi-nucleate cells among regularly sized cells” value in [4] (five days of incubation, 10 micromolar) is “about one in fifty”. For the same molecule, in data set [4], the “growth rate of MEL cells” value was “slows down the growth rate”.

With `Nc1ncnc2c1ncn2[C@@H]1O[C@H](CSCC[C@H](N)C(=O)O)[C@@H](O)[C@H]1O` [AdoHcy, S-adenosyl homocysteine], the Ki at DCMTase [6] (varied AdoMet, fixed poly(dIdC:dIdC), competitive, read-out: Inhibition Constant Kis) came out at 1400 nM; on DCMTase [6] (varied poly(dI.dC:dI.dC), low AdoMet concentrations, read-out: Kii, noncompetitive model) it was 2500 nM; at DCMTase [6] (varied poly(dI.dC:dI.dC), low AdoMet concentrations, read-out: Kii, uncompetitive model) it was 2000 nM; at DCMTase [6] (varied poly(dI.dC:dI.dC), low AdoMet concentrations, read-out: Kis, noncompetitive model), 63000 nM. Also, the “Type of Inhibition” value was “C” on DCMTase [6] (varied substrate AdoMet, fixed substrate IC) and “NC/UC” on DCMTase [6] (varied substrate IC, fixed substrate AdoMet).

B1: CRE aMET/b (dsDNA)
DNA 1: GGGAATTCAAATGACGTCAAAAGGATCCAG
DNA 2: CTGGATCCTTTTGACGTCATTTGAATTCCC
modifications: 5mC at position 15 of strand a (hemi-methylated CpG)
For the molecule B1, in data set [7] (label: 32P), the Kd is 1000 nM.

CTGGATCCTTTTGACGTCATTTGAATTCCC (ssDNA) [CRE b] showed a Kd in data set [8] of more than 50000 nM.

B2: CRE a/b (dsDNA)
DNA 1: B1 DNA 1
DNA 2: B1 DNA 2
The molecule B2 came in with a Kd in data set [7] (label: 32P) of 1500 nM.

B3: GC-box a/bMET (dsDNA)
DNA 1: GGGAATTCAAGGGGCGGGGCAAGGATCCAG
DNA 2: CTGGATCCTTGCCCCGCCCCTTGAATTCCC
modifications: 5mC at position 15 of strand b (hemi-methylated CpG)
In data set [9], B3 returned a Kd of 360 nM.

For GGGAATTCAAGGGGCGGGGCAAGGATCCAG (ssDNA) [GC-box a], the Kd in data set [7] was found to be 1200 nM.

Regarding GGGAATTCAAATGACGTCAAAAGGATCCAG (ssDNA) [CRE a], in [8], the Kd was more than 50000 nM.
